Assay results taken from article PMC11391341, “Rational design and in vitro testing of new urease inhibitors to prevent urinary catheter blockage” (RSC Medicinal Chemistry, 2024).
“Also recorded” adds a separate entry of the source. Like-named read-outs stand apart in the source and are kept apart here.

Assays:
HepG2 cells = experiment: HepG2 mammalian cell viability (MTT assay); format: cell-based; conditions: for survival of HepG2 cells: 10 mM, 24 h incubation
Experimental: Freezer stocks of HepG2 cells were defrosted and re-suspended in Dulbecco's Eagle medium (DMEM) complete (Gibco, this contains minimum essential media (MEM, Gibco)). A T75 flask (Nunc) was seeded with 10 mL of complete DMEM. Cells were grown for 3–4 days, a 37 °C, 5% CO2, to achieve adherent cells. Old media was removed and 5 mL of PBS added to wash the cells, this was then aspirated. Cells were incubated with 3 mL, 0.25% trypsin (Gibco), and PBS (previously warmed to 37 °C) for 7 min at 37 °C. After incubation cells were checked using a microscope (Nikon TMS inverted phase contrast) to confirm that they were no longer adherent. Cells were dissociated with 4 mL of media and re-suspended by pipetting 10 mL approximately 20 times. Cells were centrifuged for 3 min at 1000 rpm, media was aspirated, and pellet was resuspended in 1 mL of media. Cells were counted using a hemocytometer and new flasks were reseeded with 200 μL of cells to 10 mL of media. To maintain stocks, cells were sub-cultured every 2–3 days.
Compounds, AHA and Bis-TU, were prepared at 10 mM with 1% DMSO in DMEM media. Varying concentrations of compounds were prepared by serial dilution across at 96-well plate (100 μL). MTT (Invitrogen) assay was used to measure the metabolic activity of the HepG2 cells. MTT (1 mg mL^−1) in media was filter sterilized and cell culture plates, 96-well (Nunc), were seeded with 1 × 10^4 cells per well and grown for 24 h. Media/compound was removed and MTT (100 μL) was added for 60 min at 37 °C and then removed. Isopropanol (150 μL) was added and the plate was incubated in foil for 15 min on an orbital shaker. Absorbance was measured at 590 nm (reference filter at 620 nm) (Sunrise, Tecan). The % survival was calculated as per eqn (4).4 [drawing 4]

P. mirabilis B4 [1] = experiment: Minimum inhibitory concentration (MIC) assay, P. mirabilis; format: cell-based, Proteus mirabilis
Experimental: (§1) The compound was dissolved in sterile water with 5% (v/v) DMSO. To the first column on a 96-well plate (Corning, UK), 200 μL of compound was added, it was then serially diluted two-fold (100 μL) across the plate to column 10. A subculture of P. mirabilis (1 × 10^6 CFU mL^−1) or E. coli NSM59 (1 × 10^6 CFU mL^−1, from the Jenkins Group collection, University of Bath), 100 μL, was added to all columns 1–10. LB broth only was added to column 11, the negative control and 200 μL of P. mirabilis/E. coli subculture was added to column 12, the positive control. The plate was incubated at 37 °C for 18 h, using a SPECTROstar Omega plate reader (BMJ LabTech) the absorbance at 600 nm was measured at regular time points during the 18 h incubation. The plate was shaken for 10 s, at 200 rpm prior to a reading being taken. The MIC was defined as the lowest concentration of compound that inhibited growth and the highest concentration that permitted bacterial growth. Initially, this was done through visualization of the plate after 18 h but also through examination of the growth curves measured at OD600.

[2] = Solubility (statement in conclusions); format: physicochemical
[3] = Delivery across the catheter balloon into artificial urine (UV-vis); format: physicochemical; conditions: 37 °C, 12 h
Experimental: Delivery through the permeable balloon was measured using UV-vis spectroscopy with a quartz cuvette (pathlength 1 cm) (Agilent Cary 60 UV-vis spectrometer). Calibration curves for AHA (Sigma) and N,N′-bis(3-pyridinylmethyl)thiourea (Flurochem, Bis-TU (A11)) were prepared using absorbances 235 nm and 239 nm, respectively (Fig. S5 ^†). Sterile 50 mL beakers were used to mimic the bladder; catheters were inflated with compound solutions, AHA (320 mM) or Bis-TU (85 mM). Biomodics IPN catheters were compared to standard all-silicone catheters (Tiga-Med, Germany). Beakers were filled with artificial urine, prepared according to Nzakizwanayo et al., 30 mL was added to the beakers which were sealed with parafilm and incubated at 37 °C.[45] Every hour for 12 h, 1 mL was removed from the artificial urine surrounding the catheter balloon and the absorbance spectra was measured. The 1 mL was returned to the beaker, so the volume remained constant. The quantity of compound released over time was determined using the calibration curves. Limit of detection (LOD) was calculated by eqn (2), where σ is the standard deviation of the lowest concentration.2 [drawing 2]

P. mirabilis B4 [4] = experiment: In vitro bladder model of the catheterized urinary tract; format: cell-based, Proteus mirabilis; conditions: balloon inflated with 20 mM compound, Biomodics IPN catheter
Experimental: The in vitro bladder model of a catheterized urinary tract enables the simulation of the crystalline biofilm and measurement of the blockage of the catheter caused by a P. mirabilis infection.[44,45] The artificial bladders were infected with a high inoculum of bacteria to mimic a late-stage CAUTI, average inoculation was 3.36 × 10^7 CFU mL^−1. Each model was catheterized with a Biomodics IPN catheter, and the balloons were inflated with 20 mM AHA in a 9 : 1 mixture of saline and DMSO; 20 mM Bis-TU in a 9 : 1 mixture of saline and DMSO; and the control bladder a 9 : 1 mixture of saline and DMSO. The artificial bladders were allowed to equilibrate over 18 h before inoculation. There is approximately a four-fold dilution during the diffusion of the compound in the artificial urine (∼5 mM at the start), however, this concentration changes once the pumps start because of the continual dilution from the filling of the bladder from the ‘kidneys’ and the drainage via the catheter. Monitoring of the pH and CFU mL^−1 in the bladder allowed tracking of the experiment (Fig. 6A and B). […] The blockage of the catheters was the end of the experiment and allowed determination of whether the compounds could increase the lifetime of the catheter (Fig. 6C).
In vitro bladder models were set up as described by Nzakizwanayo et al., the flow rate was set to run at 0.8 mL min^−1 using a Watson-Marlow 323S/D (030.3134.3DU) pump.[45] The artificial bladders were maintained at 37 °C and catheterized with Biomodics IPN catheters (donated by Biomodics ApS). Balloons were inflated with 10 mL of the following solutions: control bladder: a 9 : 1 mixture of saline (150 mM sodium chloride) and DMSO; Bis-TU bladder: 20 mM Bis-TU in a 9 : 1 mixture of saline and DMSO; and AHA bladder: 20 mM AHA in a 9 : 1 mixture of saline and DMSO. The models were set up and filled with artificial urine until they started to drain, the pump was then paused, and the compound solution allowed to equilibrate with the artificial urine in the bladder for 18 h. P. mirabilis B4 (from the Jenkins Group bacteria collection) was grown at 37 °C overnight with 200 rpm shaking in 10 mL of LB (Merck, Germany). […] Inoculation and CFU was determined by the Miles and Misra quantification technique.[56] At regular time intervals during the experiment, a sample was taken aseptically from each artificial bladder for bacterial quantification and to measure the pH. The end of the experiment was determined when the bladders blocked. Additionally, the artificial bladders were monitored by time-lapse photography overnight using a Nikon D3100 camera with photos taken every 2 min.

[5] = biological target: T1, urease expressed in whole cell Proteus mirabilis (Proteus mirabilis, UniProt P17086); experiment: Urease activity assay (Berthelot), whole-cell P. mirabilis; format: cell-based; conditions: for A1 (dose-response fit parameter) / A2 (dose-response fit parameter): % urease activity; for A1 (dose-response fit parameter) / A2 (dose-response fit parameter) / LOGx0 (dose-response fit): Proteus mirabilis whole cell, Supplementary Table 3; for fold lower IC50 than AHA: whole cell P. mirabilis urease
T1 construct: Urease in P. mirabilis is intracellular; endogenous in cells; host or cells: Proteus mirabilis B4 (Jenkins Group collection, University of Bath), whole cells
Experimental: The in vitro assay used to measure the urease activity was the Berthelot assay, which measure the accumulation of ammonia.[54,55] Compounds were tested using whole-cell P. mirabilis B4 (from the Jenkins Group collection, University of Bath). P. mirabilis was cultured overnight, 37 °C with 200 rpm shaking in 10 mL of Luria-Bertani broth (LB, Merck, Germany). The overnight culture was centrifuged, 3100 g, 10 min, at 4 °C (5810 R Eppendorf); the supernatant was discarded, and the pellet resuspended in phosphate buffer saline (PBS, Fisher Scientific, UK). In each well of a 96-well plate (Corning) 10 μL of 0.5% sulfuric acid was added. P. mirabilis (100 μL, 0.004 mg mL^−1) in phosphate buffer was incubated with the desired compound concentration and urea (100 μL, 50 mM in phosphate buffer) for 30 min at 37 °C.
Experiments were run in triplicate of two technical replicates (n = 6), with 10-fold dilutions of the compounds including a positive and negative control. To each well, 20 μL of 60 mM sodium hydroxide is added. Solution A (50 μL, 106 mM phenol, 191 μM sodium nitroprusside) and solution B (50 μL, 125 mM sodium hydroxide, 125 mM sodium hypochlorite) were added to each well and the plate was incubated for 30 min at 37 °C. The absorbance of the wells was read at 636 nm (SPECTROstar Omega BMG LabTech, Germany). Urease activity was calculated using eqn (1). IC50 was determined using non-linear regression (GraphPad Prism v9).1 [drawing 1]

E. coli NSM59 = experiment: Minimum inhibitory concentration (MIC) assay, E. coli; format: cell-based, Escherichia coli
Experimental: as §1

T1 sequence (P17086 whole entry): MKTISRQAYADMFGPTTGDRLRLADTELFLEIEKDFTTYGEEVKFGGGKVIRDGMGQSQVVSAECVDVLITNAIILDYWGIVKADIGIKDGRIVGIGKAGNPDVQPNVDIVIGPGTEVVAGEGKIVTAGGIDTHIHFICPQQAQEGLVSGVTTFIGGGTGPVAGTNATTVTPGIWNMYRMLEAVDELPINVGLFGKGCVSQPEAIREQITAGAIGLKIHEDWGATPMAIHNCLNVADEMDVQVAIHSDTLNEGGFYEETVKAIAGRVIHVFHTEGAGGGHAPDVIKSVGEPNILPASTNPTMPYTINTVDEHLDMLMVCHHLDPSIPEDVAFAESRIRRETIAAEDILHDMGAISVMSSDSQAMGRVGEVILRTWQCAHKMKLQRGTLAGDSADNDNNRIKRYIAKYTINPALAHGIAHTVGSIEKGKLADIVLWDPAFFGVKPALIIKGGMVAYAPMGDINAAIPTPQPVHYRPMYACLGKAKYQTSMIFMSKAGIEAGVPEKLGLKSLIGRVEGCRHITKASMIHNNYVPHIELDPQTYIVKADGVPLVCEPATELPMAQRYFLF

| Molecule | survival of HepG2 cells (HepG2 cells) | effect on HepG2 cells, AHA vs Bis-TU (HepG2 cells; concentrations below 1.25 mM, 24 h) | inhibitory effect on growth (P. mirabilis B4 [1]) | solubility [2] | release across balloon of Biomodics IPN catheter [3] | release across balloon of standard silicone catheter [3] | catheter blockage time (lifetime of the catheter) (P. mirabilis B4 [4]) | pH in the bladder model (P. mirabilis B4 [4]) | quantity of bacteria (CFU mL^−1) in the bladder model (P. mirabilis B4 [4]) | IC50 [5] [µM] | A1 (dose-response fit parameter) [5] [%] | A2 (dose-response fit parameter) [5] [%] | LOGx0 (dose-response fit) [5] | fold lower IC50 than AHA [5] | inhibitory effect on growth (E. coli NSM59) | IC50 ([5]; whole cell Proteus mirabilis, ± standard deviation, read-out: IC50) [µM] | IC50 ([5]; whole cell Proteus mirabilis, ± standard deviation) |
| --- | --- | --- | --- | --- | --- | --- | --- | --- | --- | --- | --- | --- | --- | --- | --- | --- | --- |
| S=C(NCc1cccnc1)NCc1cccnc1 [Compound A11, N,N′-bis(3-pyridinylmethyl)thiourea] | affect the survival | no difference | only a modest inhibitory effect | relatively low solubility | zero order kinetics release | no release | significantly outperformed the clinical standard AHA, and the control | lower than that of the AHA and control bladders | comparable across all bladders | 1.4 | -6.896 | 85.9 | -5.851 | ca. 25 fold | only a modest inhibitory effect | – | – |
| NC(=S)Nc1ccccc1 [Compound A5, N-phenylthiourea] | – | – | – | – | – | – | – | – | – | 9.66 | -2834 | 141.8 | -5.015 | – | – | – | – |
| Acetohydroxamic acid [AHA, reference compound] | affect the survival | – | only a modest inhibitory effect | – | zero order kinetics release | no release | – | – | comparable across all bladders | – | 1.739 | 91.3 | -4.436 | – | only a modest inhibitory effect | 36.6 | – |
| O=c1c(O)c(-c2ccc(O)c(O)c2)oc2cc(O)cc(O)c12 [Quercetin, quercetin, reference compound] | – | – | – | – | – | – | – | – | – | 0.866 | -6.874 | 68.53 | – | ca. 25 fold | – | – | – |
| NC(=S)NCc1ccccc1 [Compound A6, benzylthiourea] | – | – | – | – | – | – | – | – | – | 22.7 | 5.57 | 78.71 | -4.644 | – | – | – | – |
| NC(=O)CS [Compound 2-MA, 2-mercaptoacetamide, reference compound] | – | – | – | – | – | – | – | – | – | – | – | – | – | – | – | – | did not fit to a sigmoidal dose–response curve; also recorded: No fit |
